Experiment [1] deals with T1, human TPO-R (transfected Ba/F3 cells) (Homo sapiens, UniProt P40238).
T1 construct: Murine IL-3 dependent Ba/F3 cells were transfected with full length human TPO-R; expressed in transfected cells; host or cells: murine Ba/F3 cells
T1 sequence (P40238 26-635): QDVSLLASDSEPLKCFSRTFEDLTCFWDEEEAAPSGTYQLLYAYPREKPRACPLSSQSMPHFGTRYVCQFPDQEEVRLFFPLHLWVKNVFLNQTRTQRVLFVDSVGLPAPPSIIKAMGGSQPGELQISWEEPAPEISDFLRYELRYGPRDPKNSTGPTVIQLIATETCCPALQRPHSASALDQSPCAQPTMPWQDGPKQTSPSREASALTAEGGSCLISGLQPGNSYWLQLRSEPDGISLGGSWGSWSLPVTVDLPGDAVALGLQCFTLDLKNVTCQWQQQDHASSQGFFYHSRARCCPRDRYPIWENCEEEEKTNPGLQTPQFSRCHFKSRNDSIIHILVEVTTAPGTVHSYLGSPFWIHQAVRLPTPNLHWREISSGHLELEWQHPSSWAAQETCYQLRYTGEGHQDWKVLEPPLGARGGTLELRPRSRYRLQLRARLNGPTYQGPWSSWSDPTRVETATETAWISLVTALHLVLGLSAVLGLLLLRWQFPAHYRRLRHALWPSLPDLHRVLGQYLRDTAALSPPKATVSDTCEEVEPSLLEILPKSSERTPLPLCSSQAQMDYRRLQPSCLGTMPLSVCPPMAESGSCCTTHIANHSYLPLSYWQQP
Kind of experiment: Thrombopoietin dependent cell proliferation assay (MTT), TPO-R transfected Ba/F3 cells. Type of experiment: cell-based.

A further experiment concerns the target T2, TPO receptor (Homo sapiens, UniProt P40238).
T2 sequence (P40238 26-635): T1 sequence (P40238 26-635)
Kind of experiment: Microphysiometer assay: rate of acidification of extracellular medium on TPO receptor stimulation. Type of experiment: cell-based.

Setting [2] is: Table 4, cyclized compounds, read-out: EC50 (nM) Proliferation.
Where [3] appears, read: Table 4, cyclized compounds, microphysiometer, read-out: EC50 (nM) Microonys.

Data on 5 compounds can be found in patent publication US8227422B2, “Peptides and compounds that bind to a receptor” (Glaxosmithkline LLC, priority 1996, dated 2012).

Like-named read-outs stand apart in the source and are kept apart here. Where a SMILES comes first, the peptide text is derived from it.

Description for TPO receptor: In this example cyclized compounds were subjected to three assays. […] Finally, a microphysiometer (Molecular Devices Corp.) assay was performed. […] The ranges for EC50 are symbolically indicated as for IC50 described above.

For the compound `CC(C)C[C@H](NC(=O)[C@H](Cc1c[nH]c2ccccc12)NC(=O)[C@H](CCC(N)=O)NC(=O)[C@H](CCCNC(=N)N)NC(=O)[C@H](CC(C)C)NC(=O)[C@@H](NC(=O)[C@@H]1CCCN1C(=O)CNC(=O)[C@H](CSSC[C@H](NC(=O)[C@H](CCC(N)=O)NC(=O)[C@@H](NC(=O)[C@@H](N)CO)C(C)C)C(=O)NCC(=O)N1CCC[C@H]1C(=O)N[C@H](C(=O)N[C@@H](CC(C)C)C(=O)N[C@@H](CCCNC(=N)N)C(=O)N[C@@H](CCC(N)=O)C(=O)N[C@@H](Cc1c[nH]c2ccccc12)C(=O)N[C@@H](CC(C)C)C(=O)N[C@@H](C)C(=O)N[C@@H](C)C(=O)N[C@@H](CCCNC(=N)N)C(=O)N[C@@H](CC(N)=O)C(=O)N[C@@H](Cc1c[nH]cn1)C(=O)N[C@@H](CC(C)C)C(=O)N[C@@H](CO)C(N)=O)[C@@H](C)O)NC(=O)[C@H](CCC(N)=O)NC(=O)[C@@H](NC(=O)[C@@H](N)CO)C(C)C)[C@@H](C)O)C(=O)N[C@@H](C)C(=O)N[C@@H](C)C(=O)N[C@@H](CCCNC(=N)N)C(=O)N[C@@H](CC(N)=O)C(=O)N[C@@H](Cc1c[nH]cn1)C(=O)N[C@@H](CC(C)C)C(=O)N[C@@H](CO)C(N)=O` (HELM PEPTIDE1{S.V.Q.C.G.P.T.L.R.Q.W.L.A.A.R.N.H.L.S.[am]}|PEPTIDE2{S.V.Q.C.G.P.T.L.R.Q.W.L.A.A.R.N.H.L.S.[am]}$PEPTIDE1,PEPTIDE2,4:R3-4:R3$$$V2.0; bridges inferred), the EC50 was less than 500 nM in experiment [1] (Table 7, dimer compounds, read-out: EC50 (nM) Prolif.) and less than 500 nM on TPO receptor (Table 7, dimer compounds, read-out: EC50 (nM) Microonys.).
Turning to `CC[C@H](C)[C@@H]1NC(=O)[C@H](Cc2c[nH]c3ccccc23)NC(=O)[C@H](CCC(=O)O)NC(=O)[C@H](CCCNC(=N)N)NC(=O)[C@H](CC(C)C)NC(=O)[C@H]([C@@H](C)O)NC(=O)[C@@H]2CCCN2C(=O)CNC(=O)[C@H](CC(=O)O)NC(=O)[C@H](C)NC(=O)[C@@H](N)CCSSC[C@@H](C(N)=O)NC(=O)[C@H](Cc2ccccc2)NC(=O)[C@H](CO)NC1=O` (HELM PEPTIDE1{[N[C@@H](CCS[*:3])C(=O)[*:2]].A.D.G.P.T.L.R.E.W.I.S.F.C.[am]}$PEPTIDE1,PEPTIDE1,1:R3-14:R3$$$V2.0), the EC50 (in experiment [1] (setting [2]); on TPO receptor (setting [3])) was less than 500 nM each time.
Take `CC[C@H](C)[C@@H]1NC(=O)[C@H](Cc2c[nH]c3ccccc23)NC(=O)[C@H](CCC(=O)O)NC(=O)[C@H](CCCNC(=N)N)NC(=O)[C@H](CC(C)C)NC(=O)[C@H]([C@@H](C)O)NC(=O)[C@@H]2CCCN2C(=O)CNC(=O)[C@H](CC(=O)O)NC(=O)[C@H](C)NC(=O)CSC[C@@H](C(N)=O)NC(=O)[C@H](Cc2ccccc2)NC(=O)[C@H](CO)NC1=O` (HELM PEPTIDE1{[O=C(C[*:3])[*:2]].A.D.G.P.T.L.R.E.W.I.S.F.C.[am]}$PEPTIDE1,PEPTIDE1,1:R3-14:R3$$$V2.0): the EC50 (in experiment [1] (setting [2]); on TPO receptor (setting [3])) was less than 500 nM throughout.
For the compound `CC[C@H](C)[C@@H]1NC(=O)[C@H](Cc2c[nH]c3ccccc23)NC(=O)[C@H](CCC(=O)O)NC(=O)[C@H](CCCNC(=N)N)NC(=O)[C@H](CC(C)C)NC(=O)[C@H]([C@@H](C)O)NC(=O)[C@@H]2CCCN2C(=O)CNC(=O)[C@H](CC(=O)O)NC(=O)[C@H](C)NC(=O)[C@@H](N)C(C)(C)SSC(C)(C)[C@@H](C(N)=O)NC(=O)[C@H](Cc2ccccc2)NC(=O)[C@H](CO)NC1=O` (HELM PEPTIDE1{[Pen].A.D.G.P.T.L.R.E.W.I.S.F.[Pen].[am]}$PEPTIDE1,PEPTIDE1,1:R3-14:R3$$$V2.0), the EC50 (in experiment [1] (setting [2]); at TPO receptor (setting [3])) was less than 200000 nM each time.
For `CC[C@H](C)[C@@H]1NC(=O)[C@H](Cc2c[nH]c3ccccc23)NC(=O)[C@H](CCC(=O)O)NC(=O)[C@H](CCCNC(=N)N)NC(=O)[C@H](CC(C)C)NC(=O)[C@H]([C@@H](C)O)NC(=O)[C@@H]2CCCN2C(=O)CNC(=O)[C@H](CC(=O)O)NC(=O)[C@H](C)NC(=O)[C@H](N)CSSC[C@H](C(N)=O)NC(=O)[C@H](Cc2ccccc2)NC(=O)[C@H](CO)NC1=O` (HELM PEPTIDE1{[dC].A.D.G.P.T.L.R.E.W.I.S.F.[dC].[am]}$PEPTIDE1,PEPTIDE1,1:R3-14:R3$$$V2.0), the EC50 (in experiment [1] (setting [2]); at TPO receptor (setting [3])) was less than 200000 nM throughout.
